Source: patent US20060199803A1, “Compounds” (Kudos Pharmaceuticals Ltd, priority 2005, published 2006)
pIC50: −log10 of the molar value.

Target: T1, mTOR protein (Homo sapiens, UniProt P42345)
T1 construct: mTOR protein was isolated from HeLa cell cytoplasmic extract by immunoprecipitation; endogenous in cells; host or cells: HeLa cell cytoplasmic extract (immunoprecipitation)
Assay: mTOR enzyme activity assay (immunoprecipitated mTOR, recombinant PHAS-1 as substrate)
Type: biochemical
Details: mTOR isolated from HeLa cell cytoplasmic extract by immunoprecipitation; recombinant PHAS-1 substrate

| pIC50 | Structure (SMILES) |
| --- | --- |
| > 5.82 | C[C@H]1COCCN1c1nc(N2CCOC(CN3C(=O)c4cccc(N)c4C3=O)C2)nc2ncccc12 (stereo partly drawn) [5g] |
| > 5.82 | C[C@H]1COCCN1c1nc(N2CCOC(Cn3c(=O)oc4ccccc43)C2)nc2ncccc12 (stereo partly drawn) [5h] |
| > 5.82 | C[C@H]1COCCN1c1nc(N2CCOC(CNC(=O)c3cccs3)C2)nc2ncccc12 (stereo partly drawn) [5k] |
| > 5.82 | COC(=O)C(=O)NCC1CN(c2nc(N3CCOC[C@@H]3C)c3cccnc3n2)CCO1 (stereo partly drawn) [5m] |
| > 5.82 | C[C@H]1COCCN1c1nc(N2CCOC(COc3nccc4ccccc34)C2)nc2ncccc12 (stereo partly drawn) [5z] |

More lines, now with the values behind:

| Structure (SMILES) | pIC50 |
| --- | --- |
| C[C@H]1CCCCN1c1nc(N2CCCOCC2)c2cccnc2n1 [4ab] | > 5.82 |
| C[C@@H]1CN(c2nc(N3CCOC[C@@H]3C)c3cccnc3n2)C[C@H](C)O1 [4af] | > 5.82 |
| C[C@H]1COCCN1c1nc(N2CCOC(c3ccccc3)C2)nc2ncccc12 (stereo partly drawn) [4ag] | > 5.82 |
| C[C@H]1COCCN1c1nc(N2CCOCC2c2ccccc2)nc2ncccc12 (stereo partly drawn) [4ah] | > 5.82 |
| C[C@@H]1CN(c2nc(N3CCOCC3)c3cccnc3n2)C[C@H](C)O1 [4c] | > 5.82 |
| NC(=O)C1CCN(c2nc(N3CCOCC3)c3ccncc3n2)CC1 [4d] | > 5.82 |
| FC(F)(F)C1CCCN(c2nc(N3CCOCC3)c3cccnc3n2)C1 (stereo not drawn) [4h] | > 5.82 |
| CCC1CCCCN1c1nc(N2CCOCC2)c2cccnc2n1 (stereo not drawn) [4n] | > 5.82 |
| OCCC1CCCCN1c1nc(N2CCOCC2)c2cccnc2n1 (stereo not drawn) [4o] | > 5.82 |
| c1cnc2nc(N3CCCCC3)nc(N3CCOCC3)c2c1 [4y] | > 5.82 |
